The structures appear in SMILES notation. Several values for one entry are separate records, joined by “and”; a condition that tells them apart may be missing. Identical values can stand only once.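 Grown in 96-well plates, cells were treated for 48 hours with each compound at five concentrations. Insufficient inhibition: endpoint recorded as highest concentration tested. The concentration for 50% growth inhibition is given as GI50. TGI marks complete inhibition of growth.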

By GI50 is commonly meant the concentration at which growth is held to half of that of the control. For orientation: TGI means the concentration at which net growth stops.

Among the test systems are RXF 393 renal; MOLT-4 leukemia; SF-539 CNS; SW-620 colon; MALME-3M melanoma; UACC-257 melanoma; BT-549 breast; 786-0 renal; TK-10 renal; HCT-116 colon.
Common to all, as to assay: DTP human tumour cell line panel, 48 h

Regarding `CC[C@H](Nc1ncnc2nc[nH]c12)c1oc2ccccc2c(=O)c1-c1cccc(F)c1`, the GI50 was 13.2 µM in the assay on RXF 393 renal; 13.1 µM in the assay with MOLT-4 leukemia; 31.4 µM in the assay on SF-539 CNS; 32.5 µM in the assay on SW-620 colon; 25.1 µM in the assay on MALME-3M melanoma; 25.7 µM with UACC-257 melanoma. Moreover, the GI50 in the assay on BT-549 breast was 21.1 µM; in the assay with 786-0 renal it was 21.4 µM; in the assay on TK-10 renal, 19.5 µM; in the assay with HCT-116 colon it was 25.5 µM. In addition, the TGI in the assay on RXF 393 renal was 78.2 µM; with MOLT-4 leukemia, 49.1 µM; with SF-539 CNS, greater than 100 µM; with SW-620 colon, greater than 100 µM; in the assay on MALME-3M melanoma, greater than 100 µM; in the assay with UACC-257 melanoma, greater than 100 µM. The TGI with BT-549 breast is greater than 100 µM; in the assay with 786-0 renal it was greater than 100 µM; in the assay on TK-10 renal it was 95.6 µM; in the assay with HCT-116 colon, greater than 100 µM.
In the case of `CN(C)CCSC1=Nc2ccc(Cl)cc2C(c2ccccc2Cl)=NC1`, the TGI is 15.9 µM and > 100 µM in the assay on RXF 393 renal; > 100 µM and 94.3 µM with MOLT-4 leukemia; 31.6 µM and > 100 µM in the assay on SF-539 CNS; 34 µM and > 100 µM in the assay on SW-620 colon; 28.3 µM and > 100 µM with MALME-3M melanoma; 26.3 µM and > 100 µM in the assay on UACC-257 melanoma. For the same compound, the TGI with BT-549 breast was greater than 100 µM; in the assay with 786-0 renal, 31.5 µM and > 100 µM; in the assay on TK-10 renal, 33.1 µM and > 100 µM; with HCT-116 colon, 31.1 µM and > 100 µM. The GI50 in the assay on SF-539 CNS was 17.3 µM and > 100 µM; with SW-620 colon, 16.6 µM and 33.5 µM; with MALME-3M melanoma it was 13.5 µM and > 100 µM; in the assay with UACC-257 melanoma, 13.4 µM and > 100 µM; in the assay on 786-0 renal, 14.3 µM and > 100 µM; in the assay with TK-10 renal, 17.5 µM and 63.4 µM. In the assay on HCT-116 colon, the GI50 was 13.8 µM and 58.4 µM.
For `Nc1ncnc2c1nnn2C1OC(CO)C(O)C1O` (stereo unspecified), the GI50 in the assay on RXF 393 renal is 0.271 µM; in the assay with BT-549 breast, 0.496 µM; with 786-0 renal it was 0.38 µM; in the assay with TK-10 renal it was 0.151 µM. Besides, the TGI in the assay with RXF 393 renal was determined as 1.51 µM; in the assay on MOLT-4 leukemia it was 22.2 µM; in the assay on SF-539 CNS it was 9.04 µM; in the assay on SW-620 colon, 8.35 µM; in the assay with MALME-3M melanoma it was 4.62 µM; with UACC-257 melanoma, 10.9 µM. Also, the TGI was found to be 5.75 µM in the assay with BT-549 breast, 14 µM in the assay on 786-0 renal, 3.39 µM with TK-10 renal and 10.5 µM in the assay on HCT-116 colon.
In the case of `Cc1cc(I)cc(CN(C)CCCN2CCCCC2)c1O`, the GI50 with RXF 393 renal was 11.7 µM; in the assay with MOLT-4 leukemia it was 3.2 µM; in the assay on SF-539 CNS, 13.7 µM; with SW-620 colon, 14.6 µM; with MALME-3M melanoma it was 21.7 µM; with UACC-257 melanoma it was 16.4 µM. In addition, the GI50 is 10.7 µM in the assay on BT-549 breast, 13.7 µM in the assay with 786-0 renal, 19.8 µM with TK-10 renal and 9.24 µM in the assay on HCT-116 colon. Further, the TGI in the assay with RXF 393 renal came to 26.6 µM; with MOLT-4 leukemia, 13.4 µM; with SF-539 CNS, 26.9 µM; in the assay on SW-620 colon, 27.7 µM; with MALME-3M melanoma it was 42.3 µM; in the assay with UACC-257 melanoma it was 31.9 µM. Further, the TGI with BT-549 breast was determined as 22.9 µM; in the assay with 786-0 renal it was 26.5 µM; with TK-10 renal, 37.7 µM; in the assay on HCT-116 colon, 21.3 µM.
In the case of `CN(C(=O)c1ccc(C(F)(F)F)cc1)c1ccc(Oc2ccc3c(c2)cc(C(=O)N2CCN(Cc4ccc(OC(F)F)cc4)CC2)n3C)nc1`, the GI50 was 49.2 µM with RXF 393 renal; 0.881 µM in the assay on MOLT-4 leukemia; greater than 100 µM with SF-539 CNS; 98.2 µM with SW-620 colon; greater than 34.9 µM in the assay with MALME-3M melanoma; 0.138 µM with UACC-257 melanoma. Also, the GI50 with BT-549 breast is 6.71 µM; in the assay on 786-0 renal, greater than 100 µM; with TK-10 renal, 15.7 µM; in the assay on HCT-116 colon, less than 0.01 µM. Further, the TGI with RXF 393 renal, in the assay on MOLT-4 leukemia, in the assay on SF-539 CNS, in the assay with SW-620 colon, in the assay with MALME-3M melanoma and with UACC-257 melanoma was greater than 100 µM in each case. Further, the TGI in the assay with BT-549 breast was greater than 100 µM; with 786-0 renal, greater than 100 µM; with TK-10 renal, greater than 96.1 µM; in the assay on HCT-116 colon, greater than 100 µM.
Consider `COc1cc2c(c(OC)c1OC)-c1ccc(OC)c(=O)cc1C(NC(=O)c1ccc(N=[N+]=[N-])cc1)CC2` (stereo unspecified), for which the TGI was 0.061 µM in the assay with RXF 393 renal; 9.82 µM with MOLT-4 leukemia; 0.0611 µM with SF-539 CNS; greater than 100 µM in the assay on SW-620 colon; greater than 100 µM in the assay with MALME-3M melanoma; greater than 100 µM with UACC-257 melanoma. Moreover, the TGI in the assay with BT-549 breast was greater than 100 µM; in the assay with 786-0 renal, greater than 100 µM; in the assay with TK-10 renal, greater than 100 µM; with HCT-116 colon it was 18.2 µM.
Consider `COc1ccc(/C=C(/C#N)n2nnc3cccc(F)c32)cc1`, for which the GI50 with RXF 393 renal was 1.3 µM; in the assay with MOLT-4 leukemia it was 0.68 µM; with SF-539 CNS, 1.62 µM; with SW-620 colon, 0.399 µM; in the assay with MALME-3M melanoma, 0.69 µM; with UACC-257 melanoma, 77.8 µM. For the same compound, the GI50 was 2.39 µM with BT-549 breast, 2.42 µM in the assay with 786-0 renal, 3.18 µM with TK-10 renal and 0.533 µM with HCT-116 colon. For the same compound, the TGI with RXF 393 renal is 6.37 µM; in the assay on MOLT-4 leukemia it was greater than 100 µM; in the assay with SF-539 CNS it was 4.06 µM; with SW-620 colon, greater than 100 µM; in the assay with MALME-3M melanoma, greater than 100 µM; in the assay with UACC-257 melanoma, greater than 100 µM. Also, the TGI was 52.9 µM in the assay on BT-549 breast, greater than 100 µM in the assay on 786-0 renal, 47.2 µM in the assay with TK-10 renal and 3.02 µM in the assay with HCT-116 colon.
Take `CCN(CC)c1ccc(-c2cc(-c3cc(OC)c(OC)c(OC)c3)nc(N3CCOCC3)c2C#N)cc1`: the GI50 is 1.01 µM with RXF 393 renal; 2.45 µM in the assay with MOLT-4 leukemia; 1.36 µM with SF-539 CNS; 3.3 µM with SW-620 colon; 2.28 µM with MALME-3M melanoma; 2.57 µM in the assay on UACC-257 melanoma. In addition, the GI50 with BT-549 breast is 0.48 µM; in the assay on 786-0 renal, 1.9 µM; in the assay on TK-10 renal, 15.3 µM; in the assay with HCT-116 colon, 0.457 µM. Further, the TGI in the assay with RXF 393 renal was 21 µM; in the assay with MOLT-4 leukemia it was greater than 100 µM; in the assay with SF-539 CNS, 12.7 µM; in the assay on SW-620 colon, greater than 100 µM; in the assay on MALME-3M melanoma, greater than 29.9 µM; in the assay with UACC-257 melanoma it was greater than 100 µM. The TGI in the assay with BT-549 breast was greater than 100 µM; with 786-0 renal, 9.94 µM; in the assay on TK-10 renal, greater than 100 µM; in the assay with HCT-116 colon, 21.1 µM.

These data come from PubChem BioAssay (NCI).
